Here are results for four compounds from patent US7381429B2, “Extracts from sophora species, method for producing the same and their use” (Dr. Willmar Schwabe GmbH & Co., priority 2000, dated 2008).

Series [1] deals with Ishikawa-Var-I cells. Particulars: cited from earlier work.
For series [2] the following is noted: animal studies; cited from earlier work.
Series [3] has as its target T1, human α oestrogen receptor (Homo sapiens, UniProt P03372).
T1 construct: expressed in transfected cells; host or cells: yeast cells (saccharomyces)
T1 sequence (P03372 1-595): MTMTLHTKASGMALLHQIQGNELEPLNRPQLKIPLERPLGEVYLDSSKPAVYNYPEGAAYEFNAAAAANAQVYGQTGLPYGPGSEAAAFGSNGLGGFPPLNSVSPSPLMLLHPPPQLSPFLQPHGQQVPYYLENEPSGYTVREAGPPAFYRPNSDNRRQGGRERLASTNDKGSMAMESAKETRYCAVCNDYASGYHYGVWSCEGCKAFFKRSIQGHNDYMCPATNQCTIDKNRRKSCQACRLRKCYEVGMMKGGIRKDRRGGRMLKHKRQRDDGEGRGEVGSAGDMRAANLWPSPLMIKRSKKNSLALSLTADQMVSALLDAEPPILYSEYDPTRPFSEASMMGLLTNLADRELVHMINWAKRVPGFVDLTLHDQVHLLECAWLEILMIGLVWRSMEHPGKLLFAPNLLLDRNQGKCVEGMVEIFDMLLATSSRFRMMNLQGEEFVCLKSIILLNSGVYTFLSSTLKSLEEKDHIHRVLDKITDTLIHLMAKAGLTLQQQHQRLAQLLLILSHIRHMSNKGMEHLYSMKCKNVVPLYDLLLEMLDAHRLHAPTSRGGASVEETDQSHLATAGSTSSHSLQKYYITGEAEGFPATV
Put plainly: Reportergen assay for oestrogenic activity with transfected yeast cells. The series is classed as cell-based. Particulars: yeast cells expressing human α oestrogen receptor, β galactosidase reporter, 72 hours at 32° C. Here is the method: Testing the ethylacetate extracts produced for oestrogenic activity with transfected yeast cells, which express the human α oestrogen receptor.
The testing of extracts for oestrogenic properties was performed with a Reportergen assay, using yeast cells (saccharomyces). These cells are stable with the human α oestrogen receptor and an expression plasmid which contains an oestrogen response element and the gene for the enzyme β galactosidase. All samples were dissolved in DMSO at a concentration of 20 mg/ml, and were given undiluted or after diluting with DMSO at the ratio of 1/10, 1/100 or at a volume of 1 μl to 100 μl culture medium in 96-well flat-bottom micro-titre dishes. Next, 100 μl yeast suspension and the chromogenous substrate chlorophenolred-β-D-galactopyranoside were added. […] The yeast cells were incubated for 72 hours at 32° C., after which absorption of the medium was measured at 540 nm in a micro-titre dish photometer. The samples were sometimes checked twice.

As for `CC(C)=CCc1c(O)cc(O)c2c1O[C@H](c1ccc(O)cc1)CC2=O` [8-prenylnaringenine], in series [1] (versus 17β oestradiol), the “oestrogenic effect compared with 17β oestradiol” value is “only a slightly weaker effect than 17β oestradiol”. In series [1] (versus coumestrol, genistein or daidzein), the “oestrogenic potency compared with known phyto-oestrogens” value is “significantly more active than the phyto-oestrogens known so far”.
`O=C1CCC[C@@H]2[C@H]3CCC[N+]4([O-])CCC[C@@H](CN12)[C@@H]34` (some centres unmarked) [oxymatrine]: the toxic effects entry in series [2] is listed as “toxic effects could be shown”.
As for `Oc1ccc2c(c1)OC[C@H]1c3cc4c(cc3O[C@@H]21)OCO4` [maackiain], the “oestrogenic activity in yeast assay” value in series [3] is “relevant to the effectiveness of the extract”.
Regarding `OC[C@H]1O[C@@H](Oc2ccc3c(c2)OC[C@H]2c4cc5c(cc4O[C@@H]32)OCO5)[C@H](O)[C@@H](O)[C@@H]1O` [maackiain glucoside], the “oestrogenic activity in yeast assay” value in series [3] is given as “relevant to the effectiveness of the extract”.
